According to ChEMBL document CHEMBL5291721, “A preclinical secondary pharmacology resource illuminates target-adverse drug reaction associations of marketed drugs” (Nat Commun, 2023):

Experiments:
D(3) dopamine receptor = D(3) dopamine receptor (Homo sapiens, UniProt P35462)
[1] = target: T1, Muscarinic acetylcholine receptor M2 (Homo sapiens, UniProt P08172); type: functional, cell-based
T1 sequence (P08172 whole entry): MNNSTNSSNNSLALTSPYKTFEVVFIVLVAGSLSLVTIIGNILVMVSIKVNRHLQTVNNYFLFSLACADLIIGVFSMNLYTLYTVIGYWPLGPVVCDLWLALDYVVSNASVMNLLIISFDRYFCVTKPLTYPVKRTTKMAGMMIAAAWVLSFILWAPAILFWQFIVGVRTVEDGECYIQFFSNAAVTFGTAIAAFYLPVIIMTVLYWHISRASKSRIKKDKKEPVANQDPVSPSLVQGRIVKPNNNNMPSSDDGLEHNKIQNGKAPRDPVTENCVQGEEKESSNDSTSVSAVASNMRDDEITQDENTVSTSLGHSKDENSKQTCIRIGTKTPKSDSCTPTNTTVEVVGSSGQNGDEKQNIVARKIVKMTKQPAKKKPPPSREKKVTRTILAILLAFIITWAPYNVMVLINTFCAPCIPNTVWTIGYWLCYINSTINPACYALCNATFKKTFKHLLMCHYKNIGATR

[2] = target: Delta-type opioid receptor (Homo sapiens, UniProt P41143)
[3] = target: T2, Cholecystokinin receptor type A (Homo sapiens, UniProt P32238)
T2 sequence (P32238 whole entry): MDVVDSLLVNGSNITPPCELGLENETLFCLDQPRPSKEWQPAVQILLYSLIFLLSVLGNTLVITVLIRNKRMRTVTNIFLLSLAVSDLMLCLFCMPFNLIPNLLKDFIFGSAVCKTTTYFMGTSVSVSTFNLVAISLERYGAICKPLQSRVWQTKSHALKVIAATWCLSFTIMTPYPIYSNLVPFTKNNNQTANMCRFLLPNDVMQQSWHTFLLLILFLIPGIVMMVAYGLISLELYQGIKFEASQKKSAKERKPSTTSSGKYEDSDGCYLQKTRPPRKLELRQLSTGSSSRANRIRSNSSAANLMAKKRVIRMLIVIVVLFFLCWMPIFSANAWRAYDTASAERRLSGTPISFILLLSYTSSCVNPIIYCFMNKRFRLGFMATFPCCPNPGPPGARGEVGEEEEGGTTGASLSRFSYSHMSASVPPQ

D(1A) dopamine receptor = D(1A) dopamine receptor (Homo sapiens, UniProt P21728); type: functional, cell-based
[4] = target: T3, 5-hydroxytryptamine receptor 1A (Homo sapiens, UniProt P08908); type: functional, cell-based
T3 sequence (P08908 whole entry): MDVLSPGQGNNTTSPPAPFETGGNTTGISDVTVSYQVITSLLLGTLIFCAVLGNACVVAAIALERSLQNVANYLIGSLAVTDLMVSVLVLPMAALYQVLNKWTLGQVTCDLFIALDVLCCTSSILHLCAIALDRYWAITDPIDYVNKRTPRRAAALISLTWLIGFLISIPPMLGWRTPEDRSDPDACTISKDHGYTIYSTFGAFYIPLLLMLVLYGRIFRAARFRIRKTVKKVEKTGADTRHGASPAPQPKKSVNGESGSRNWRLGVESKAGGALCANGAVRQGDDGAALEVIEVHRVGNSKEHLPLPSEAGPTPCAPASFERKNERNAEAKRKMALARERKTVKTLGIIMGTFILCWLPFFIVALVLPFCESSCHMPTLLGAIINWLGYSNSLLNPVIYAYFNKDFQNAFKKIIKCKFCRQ

[5] = target: Sodium-dependent noradrenaline transporter (Homo sapiens, UniProt P23975)
Vasopressin V1a receptor = Vasopressin V1a receptor (Homo sapiens, UniProt P37288)
[6] = target: T4, Muscarinic acetylcholine receptor M1 (Homo sapiens, UniProt P11229); type: functional
T4 sequence (P11229 whole entry): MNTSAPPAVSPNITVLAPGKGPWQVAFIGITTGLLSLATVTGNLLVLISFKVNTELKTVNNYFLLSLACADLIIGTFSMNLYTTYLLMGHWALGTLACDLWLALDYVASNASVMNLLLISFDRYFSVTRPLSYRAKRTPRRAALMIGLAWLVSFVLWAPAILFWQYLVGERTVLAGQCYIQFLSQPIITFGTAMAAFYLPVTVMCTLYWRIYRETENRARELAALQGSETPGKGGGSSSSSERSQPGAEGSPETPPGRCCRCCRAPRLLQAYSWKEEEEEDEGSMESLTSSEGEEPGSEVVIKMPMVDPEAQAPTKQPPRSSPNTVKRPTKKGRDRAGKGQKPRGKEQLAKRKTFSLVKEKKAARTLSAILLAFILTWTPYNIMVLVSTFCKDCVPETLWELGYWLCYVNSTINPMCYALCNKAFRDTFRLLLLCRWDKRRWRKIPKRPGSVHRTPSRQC

Estrogen receptor = target: T5, Estrogen receptor (Homo sapiens, UniProt P03372)
T5 sequence (P03372 whole entry): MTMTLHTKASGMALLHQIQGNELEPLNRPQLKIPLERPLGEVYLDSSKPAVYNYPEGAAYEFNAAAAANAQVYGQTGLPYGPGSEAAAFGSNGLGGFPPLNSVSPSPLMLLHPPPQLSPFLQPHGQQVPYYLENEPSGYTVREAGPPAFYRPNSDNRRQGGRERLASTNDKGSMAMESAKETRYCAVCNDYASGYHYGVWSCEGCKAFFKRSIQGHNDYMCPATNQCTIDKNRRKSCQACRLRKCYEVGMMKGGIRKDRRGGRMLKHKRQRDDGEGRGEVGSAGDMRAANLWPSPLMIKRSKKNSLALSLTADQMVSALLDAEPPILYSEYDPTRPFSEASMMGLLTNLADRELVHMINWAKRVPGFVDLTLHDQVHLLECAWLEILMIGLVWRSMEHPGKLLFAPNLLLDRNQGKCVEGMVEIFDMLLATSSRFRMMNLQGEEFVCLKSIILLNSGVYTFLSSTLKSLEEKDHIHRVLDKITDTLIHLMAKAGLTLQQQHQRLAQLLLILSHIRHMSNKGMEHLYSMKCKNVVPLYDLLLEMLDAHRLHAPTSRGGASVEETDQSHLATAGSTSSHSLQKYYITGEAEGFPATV

[7] = target: Muscarinic acetylcholine receptor M3 (Homo sapiens, UniProt P20309)
Also: assay procedure not described here.

Sequence of Delta-type opioid receptor (P41143 whole entry): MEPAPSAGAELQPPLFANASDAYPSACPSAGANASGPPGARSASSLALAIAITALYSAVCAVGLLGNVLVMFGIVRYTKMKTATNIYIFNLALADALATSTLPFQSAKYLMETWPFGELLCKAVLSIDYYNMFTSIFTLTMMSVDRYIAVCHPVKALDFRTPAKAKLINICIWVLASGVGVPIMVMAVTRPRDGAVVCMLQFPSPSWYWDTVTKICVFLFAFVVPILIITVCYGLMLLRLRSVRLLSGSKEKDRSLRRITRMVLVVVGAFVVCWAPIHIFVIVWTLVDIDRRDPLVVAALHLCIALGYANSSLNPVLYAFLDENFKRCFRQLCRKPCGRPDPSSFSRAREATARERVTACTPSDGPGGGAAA
Sequence of Sodium-dependent noradrenaline transporter (P23975 whole entry): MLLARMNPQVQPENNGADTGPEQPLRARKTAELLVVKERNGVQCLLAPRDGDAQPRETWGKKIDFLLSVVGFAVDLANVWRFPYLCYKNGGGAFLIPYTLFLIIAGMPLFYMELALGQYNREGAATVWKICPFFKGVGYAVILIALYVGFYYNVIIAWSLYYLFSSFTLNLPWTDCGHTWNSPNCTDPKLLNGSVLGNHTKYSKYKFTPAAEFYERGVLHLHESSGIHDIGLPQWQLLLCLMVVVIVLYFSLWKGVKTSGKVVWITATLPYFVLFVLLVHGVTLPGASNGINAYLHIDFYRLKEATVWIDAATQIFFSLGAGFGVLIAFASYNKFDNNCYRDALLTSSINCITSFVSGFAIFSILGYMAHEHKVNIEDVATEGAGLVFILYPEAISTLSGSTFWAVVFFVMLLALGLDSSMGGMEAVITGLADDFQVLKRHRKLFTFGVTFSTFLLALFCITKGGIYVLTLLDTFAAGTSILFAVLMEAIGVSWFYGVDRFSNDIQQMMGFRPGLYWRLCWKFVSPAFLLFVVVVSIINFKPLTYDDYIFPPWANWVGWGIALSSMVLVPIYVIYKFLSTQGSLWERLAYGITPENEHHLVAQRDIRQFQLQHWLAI
Sequence of Vasopressin V1a receptor (P37288 whole entry): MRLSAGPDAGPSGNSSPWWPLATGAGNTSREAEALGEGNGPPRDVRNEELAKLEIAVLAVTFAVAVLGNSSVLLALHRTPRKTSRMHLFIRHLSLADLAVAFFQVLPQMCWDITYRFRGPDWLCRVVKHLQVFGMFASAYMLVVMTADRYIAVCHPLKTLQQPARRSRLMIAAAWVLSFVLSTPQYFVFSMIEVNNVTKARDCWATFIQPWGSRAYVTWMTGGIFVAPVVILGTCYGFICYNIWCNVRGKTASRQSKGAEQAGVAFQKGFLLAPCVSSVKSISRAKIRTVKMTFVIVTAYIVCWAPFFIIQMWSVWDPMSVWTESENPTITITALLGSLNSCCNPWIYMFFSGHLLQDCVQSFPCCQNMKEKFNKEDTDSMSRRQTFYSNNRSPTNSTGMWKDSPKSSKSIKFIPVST
Sequence of D(1A) dopamine receptor (P21728 whole entry): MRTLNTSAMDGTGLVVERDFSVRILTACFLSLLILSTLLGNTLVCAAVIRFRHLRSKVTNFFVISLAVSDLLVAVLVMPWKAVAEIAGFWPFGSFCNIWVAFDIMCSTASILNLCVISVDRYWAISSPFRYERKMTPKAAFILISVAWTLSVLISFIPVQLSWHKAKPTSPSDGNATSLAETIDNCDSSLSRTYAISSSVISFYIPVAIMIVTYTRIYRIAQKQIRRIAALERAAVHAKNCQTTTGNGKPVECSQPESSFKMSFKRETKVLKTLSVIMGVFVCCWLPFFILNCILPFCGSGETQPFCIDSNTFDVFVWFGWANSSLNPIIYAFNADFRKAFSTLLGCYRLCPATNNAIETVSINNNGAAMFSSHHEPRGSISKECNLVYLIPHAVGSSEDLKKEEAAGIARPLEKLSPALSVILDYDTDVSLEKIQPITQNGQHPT
Sequence of D(3) dopamine receptor (P35462 whole entry): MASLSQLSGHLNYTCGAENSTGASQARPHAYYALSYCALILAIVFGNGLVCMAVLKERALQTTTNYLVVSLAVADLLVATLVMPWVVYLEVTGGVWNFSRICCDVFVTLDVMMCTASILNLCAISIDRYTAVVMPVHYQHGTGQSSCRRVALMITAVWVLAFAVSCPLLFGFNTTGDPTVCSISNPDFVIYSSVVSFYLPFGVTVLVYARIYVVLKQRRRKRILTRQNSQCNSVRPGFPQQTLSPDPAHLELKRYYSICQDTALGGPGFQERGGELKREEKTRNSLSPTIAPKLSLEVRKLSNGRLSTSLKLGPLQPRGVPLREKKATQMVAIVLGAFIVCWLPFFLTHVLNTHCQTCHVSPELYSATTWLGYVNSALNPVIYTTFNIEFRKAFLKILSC
Sequence of Muscarinic acetylcholine receptor M3 (P20309 whole entry): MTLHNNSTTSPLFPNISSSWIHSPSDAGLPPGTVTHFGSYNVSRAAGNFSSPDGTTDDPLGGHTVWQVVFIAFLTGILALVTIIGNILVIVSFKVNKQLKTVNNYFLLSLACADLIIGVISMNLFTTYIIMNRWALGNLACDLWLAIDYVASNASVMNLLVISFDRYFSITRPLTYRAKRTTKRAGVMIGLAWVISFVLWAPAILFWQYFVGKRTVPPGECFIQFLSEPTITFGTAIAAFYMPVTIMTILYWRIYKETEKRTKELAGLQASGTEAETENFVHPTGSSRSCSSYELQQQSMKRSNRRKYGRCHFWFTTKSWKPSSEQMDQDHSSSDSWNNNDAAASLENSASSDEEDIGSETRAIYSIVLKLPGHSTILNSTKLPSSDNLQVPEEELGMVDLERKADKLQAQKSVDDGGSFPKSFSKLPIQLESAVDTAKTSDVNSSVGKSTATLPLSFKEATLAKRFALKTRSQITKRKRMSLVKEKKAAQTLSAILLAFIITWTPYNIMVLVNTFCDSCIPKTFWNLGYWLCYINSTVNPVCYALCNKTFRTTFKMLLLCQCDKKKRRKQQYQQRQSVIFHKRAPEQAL

| Compound | AC50 (D(3) dopamine receptor) [µM] | AC50 [1] [µM] | AC50 [2] [µM] | AC50 [3] [µM] | AC50 (D(1A) dopamine receptor) [µM] | AC50 [4] [µM] | AC50 [5] [µM] | AC50 (Vasopressin V1a receptor) [µM] | AC50 [6] [µM] | AC50 (Estrogen receptor) [µM] | AC50 [7] [µM] |
| --- | --- | --- | --- | --- | --- | --- | --- | --- | --- | --- | --- |
| NC(=O)CN1CCCC1=O | > 30 | > 30 | > 30 | > 30 | > 30 | > 30 | > 30 | – | – | – | – |
| Cn1c(=O)cc(N2CCC[C@@H](N)C2)n(Cc2ccccc2C#N)c1=O [ALOGLIPTIN] | > 10 | – | > 10 | > 30 | – | – | > 10 | > 10 | > 10 | > 30 | – |
| CCN1CCCC1CNC(=O)c1cc(S(=O)(=O)CC)c(N)cc1OC (stereo not given) [AMISULPRIDE] | – | > 30 | > 30 | – | > 30 | > 30 | > 30 | – | > 30 | > 30 | > 30 |
| O=C(O)CCNC(=O)c1ccccc1 [BETAMIPRON] | > 30 | > 30 | > 30 | > 30 | > 30 | > 30 | > 30 | – | – | > 30 | – |
| COc1cc2ncnc(Nc3ccc(F)c(Cl)c3)c2cc1NC(=O)/C=C/CN1CCCCC1 [DACOMITINIB ANHYDROUS] | – | > 10 | – | – | – | – | 14 | – | 11 | – | – |
| CC(=O)OCC(=O)[C@@]1(O)[C@H](C)C[C@H]2[C@@H]3CCC4=CC(=O)C=C[C@]4(C)[C@@]3(F)[C@@H](O)C[C@@]21C [DEXAMETHASONE ACETATE] | > 30 | > 10 | > 30 | > 30 | > 10 | > 10 | > 30 | > 30 | > 10 | – | > 30 |
| CCCCCCCCCCCCCCCCCCCCCC(=O)Nc1ccn([C@@H]2O[C@H](CO)[C@@H](O)[C@@H]2O)c(=O)n1 [ENOCITABINE] | > 30 | > 30 | > 30 | > 30 | > 30 | > 30 | > 30 | > 30 | > 30 | – | > 30 |
| CCN(CC)CCN1C(=O)CN=C(c2ccccc2F)c2cc(Cl)ccc21 [FLURAZEPAM] | 8.4 | > 10 | > 30 | > 30 | > 30 | > 30 | > 30 | – | > 10 | > 30 | > 30 |
| CC(=O)[C@]1(O)Cc2c(O)c3c(c(O)c2[C@@H](O[C@H]2C[C@H](N)[C@H](O)[C@H](C)O2)C1)C(=O)c1ccccc1C3=O [IDARUBICIN] | 17 | – | 19 | > 10 | > 30 | – | 8.7 | > 30 | – | – | – |
| Nc1cc(-c2ccncc2)c[nH]c1=O [INAMRINONE] | > 30 | > 10 | > 30 | > 30 | > 10 | > 10 | > 30 | – | – | > 30 | – |
| CCOC(=O)O[C@]1(C(=O)OCCl)CC[C@H]2[C@@H]3CCC4=CC(=O)C=C[C@]4(C)[C@H]3[C@@H](O)C[C@@]21C [LOTEPREDNOL ETABONATE] | > 30 | > 30 | > 30 | > 30 | > 30 | > 30 | > 30 | > 30 | > 30 | – | > 30 |
| Cc1ncc2n1-c1ccc(Cl)cc1C(c1ccccc1F)=NC2 [MIDAZOLAM] | 10 | > 10 | > 30 | > 30 | > 30 | > 30 | > 30 | – | > 10 | > 30 | > 30 |
| COc1ccc(-c2noc(CC(=O)O)c2-c2ccc(OC)cc2)cc1 [MOFEZOLAC] | > 30 | > 30 | > 30 | > 30 | > 30 | > 30 | > 30 | > 30 | > 30 | – | > 30 |
| O=C1CN=C(c2ccccc2)c2cc([N+](=O)[O-])ccc2N1 [NITRAZEPAM] | > 30 | > 10 | > 30 | > 10 | > 30 | > 10 | > 10 | – | – | > 10 | – |
| CN(C(=O)c1c(O)c2ccccc2n(C)c1=O)c1ccccc1 [ROQUINIMEX] | – | – | – | – | – | – | > 30 | – | > 30 | – | – |
| OCc1cc(C(O)CNCCCCCCOCCCCc2ccccc2)ccc1O (stereo not given) [SALMETEROL] | 8.9 | – | > 30 | > 30 | > 30 | 5.4 | 4.3 | – | > 10 | > 30 | > 30 |
| Cn1cnc2c(F)c(Nc3ccc(Br)cc3Cl)c(C(=O)NOCCO)cc21 [SELUMETINIB] | – | – | – | – | – | – | > 30 | – | > 10 | – | – |
| CCN(CC)CCNC(=O)c1cc(S(C)(=O)=O)ccc1OC [TIAPRIDE] | 0.36 | > 30 | > 30 | > 30 | > 30 | > 30 | > 30 | > 30 | – | > 30 | – |
| NC1CCN(c2nc3c(cc2F)c(=O)c(C(=O)O)cn3-c2ccc(F)cc2F)C1 (stereo not given) [TOSUFLOXACIN] | > 30 | > 30 | > 30 | > 30 | > 30 | > 30 | > 30 | – | – | > 30 | – |
| CCC(COC(=O)c1cc(OC)c(OC)c(OC)c1)(c1ccccc1)N(C)C (stereo not given) [TRIMEBUTINE] | > 30 | 1.2 | 4 | > 30 | > 30 | > 30 | > 30 | > 30 | > 30 | – | > 30 |
